# In ChEMBL document CHEMBL4359906, “Design and synthesis of new N-terminal fatty acid modified-antimicrobial peptide analogues with potent in vitro biological activity” (Eur J Med Chem, 2019):
# Activity calls are given as the source filed them. The calls are words filed in the database; no cut-off is given here.
# How the values were obtained:
# [1] = system: Staphylococcus aureus; experiment: Antibiofilm activity against Staphylococcus aureus ATCC 25923 at 1 to 2 times of MIC after 24 hrs by crystal violet staining based assay; format: functional, organism-based
# [2] = system: Staphylococcus aureus; experiment: Antibacterial activity against Staphylococcus aureus ATCC 25923 after 18 hrs in presence of KCl by CLSI based broth microdilution method (reference value: 128 microM); format: functional; conditions: ATCC 25923, 18 h
# [3] = system: Escherichia coli; experiment: Antibacterial activity against Escherichia coli ATCC 25922 after 18 hrs in presence of KCl by CLSI based broth microdilution method (reference value: 16 microM); format: functional; conditions: ATCC 25922, 18 h
# [4] = system: Pseudomonas aeruginosa; experiment: Antibiofilm activity against Pseudomonas aeruginosa ATCC 27853 at 0.25 to 2 times of MIC after 24 hrs by crystal violet staining based assay; format: functional, organism-based
# [5] = system: Escherichia coli; experiment: Antimicrobial activity against Escherichia coli ATCC 25922 at 1 mM preincubated for 6 hrs in presence of 2 ug/ml chymotrypsin and measured after 18 hrs by microplate reader analysis; format: functional, organism-based
# [6] = system: Escherichia coli; experiment: Disruption of membrane integrity in Escherichia coli ATCC 25922 assessed as membrane damage by measuring PI fluorescence incubated for 1 hr by PI dye based flow cytometric analysis; format: functional, organism-based
# [7] = Cytotoxicity against mouse RAW264.7 cells assessed as cell proliferation at 64 uM after 1 hr by MTT assay relative to control; format: cell-based; conditions: read-out: Activity
# [8] = system: Escherichia coli; experiment: Antimicrobial activity against Escherichia coli ATCC 25922 preincubated for 6 hrs in presence of 10% mouse serum and measured after 18 hrs by CLSI-based broth microdilution assay (reference value: 16 microM); format: functional
# [9] = system: Escherichia coli; experiment: Antibacterial activity against Escherichia coli ATCC 25922 after 18 hrs in presence of FeCl3 by CLSI based broth microdilution method (reference value: 16 microM); format: functional; conditions: ATCC 25922, 18 h
# [10] = system: Escherichia coli; experiment: Antibacterial activity against Escherichia coli ATCC 25922 after 18 hrs in presence of NaCl by CLSI based broth microdilution method (reference value: 16 microM); format: functional; conditions: ATCC 25922, 18 h
# [11] = system: Staphylococcus aureus; experiment: Antibacterial activity against Staphylococcus aureus ATCC 25923 after 18 hrs in presence of MgCl2 by CLSI based broth microdilution method (reference value: 128 microM); format: functional; conditions: ATCC 25923, 18 h
# [12] = system: Escherichia coli; experiment: Antibacterial activity against Escherichia coli ATCC 25922 after 18 hrs in presence of MgCl2 by CLSI based broth microdilution method (reference value: 16 microM); format: functional; conditions: ATCC 25922, 18 h
# [13] = system: Escherichia coli; experiment: Antibiofilm activity against Escherichia coli ATCC 25922 assessed as reduction in biofilm inhibition at MIC after 24 hrs by crystal violet staining based assay relative to control; format: functional
# [14] = system: Escherichia coli; experiment: Antimicrobial activity against Escherichia coli ATCC 25922 preincubated for 1 hr in presence of 10% mouse serum and measured after 18 hrs by CLSI-based broth microdilution assay (reference value: 16 microM); format: functional
# [15] = system: Escherichia coli; experiment: Disruption of membrane integrity in Escherichia coli ATCC 25922 assessed as membrane damage by measuring PI fluorescence at 2 times of MIC incubated for 1 hr by PI dye based flow cytometric analysis (reference value: 1.35%); format: functional
# [16] = system: Escherichia coli; experiment: Antibacterial activity against Escherichia coli ATCC 25922 at 0.5 times MIC incubated for 18 hrs measured for 15 passages by CLSI based broth microdilution method; format: functional, organism-based
# [17] = system: Escherichia coli; experiment: Antibacterial activity against Escherichia coli ATCC 25922 after 18 hrs in presence of FeCl3 by CLSI based broth microdilution method (reference value: 8 microM); format: functional; conditions: ATCC 25922, 18 h
# [18] = system: Escherichia coli; experiment: Antibacterial activity against Escherichia coli ATCC 25922 after 18 hrs in presence of MgCl2 by CLSI based broth microdilution method (reference value: 8 microM); format: functional; conditions: ATCC 25922, 18 h
# [19] = system: Staphylococcus aureus; experiment: Antibacterial activity against Staphylococcus aureus ATCC 25923 after 18 hrs in presence of KCl by CLSI based broth microdilution method (reference value: 64 microM); format: functional; conditions: ATCC 25923, 18 h
# [20] = system: Escherichia coli; experiment: Antimicrobial activity against Escherichia coli ATCC 25922 preincubated for 1 hr in presence of 10% mouse serum and measured after 18 hrs by CLSI-based broth microdilution assay (reference value: 8 microM); format: functional
# [21] = system: Escherichia coli; experiment: Antibacterial activity against Escherichia coli ATCC 25922 after 18 hrs in presence of NaCl by CLSI based broth microdilution method (reference value: 8 microM); format: functional; conditions: ATCC 25922, 18 h
# [22] = system: Escherichia coli; experiment: Antimicrobial activity against Escherichia coli ATCC 25922 at 1 mM preincubated for 6 hrs in presence of 20 ug/ml chymotrypsin and measured after 18 hrs by microplate reader analysis; format: functional, organism-based
# [23] = system: Escherichia coli; experiment: Antibacterial activity against Escherichia coli ATCC 25922 after 18 hrs in presence of KCl by CLSI based broth microdilution method (reference value: 8 microM); format: functional; conditions: ATCC 25922, 18 h
# [24] = Cytotoxicity against mouse RAW264.7 cells assessed as cell proliferation at 32 uM after 1 hr by MTT assay relative to control; format: cell-based; conditions: read-out: Activity
# [25] = system: Escherichia coli; experiment: Antimicrobial activity against Escherichia coli ATCC 25922 preincubated for 6 hrs in presence of 10% mouse serum and measured after 18 hrs by CLSI-based broth microdilution assay (reference value: 8 microM); format: functional
# [26] = Hemolytic activity in human RBC at 256 uM measured after 1 hr by microplate reader analysis relative to control; format: ADME, cell-based, Erythrocyte; conditions: human red blood cells (erythrocytes), read-out: Activity
compound,measurement,setting,value
CCCC(=O)NC(Cc1cn(CCCC[C@H](NC(C)=O)C(=O)NCC(=O)N[C@@H](CC(C)C)C(=O)N[C@@H](CC(C)C)C(=O)N[C@H](CCCCN)C(=O)N[C@@H](CCCNC(=N)N)C(=O)N[C@H](C(=O)N[C@H](CCCCN)C(=O)N[C@H](C(=O)N[C@@H](CC(C)C)C(=O)N[C@@H](CC(C)C)C(N)=O)[C@@H](C)O)[C@@H](C)CC)nn1)C(=O)NCC(=O)N[C@@H](CC(C)C)C(=O)N[C@@H](CC(C)C)C(=O)N[C@H](CCCCN)C(=O)N[C@@H](CCCNC(=N)N)C(=O)N[C@H](C(=O)N[C@H](CCCCN)C(=O)N[C@H](C(=O)N[C@@H](CC(C)C)C(=O)N[C@@H](CC(C)C)C(N)=O)[C@@H](C)O)[C@@H](C)CC (stereo partly drawn),inhibition,[1],Active
same,MIC,[2],128 µM
same,MIC,[3],16 µM
same,inhibition,[4],Active
same,Activity,[5],Active
same,Activity,[6],Dose-dependent effect
same,"viability at 1 h, 64 µM",[7],> 80%
same,MIC,[8],16 µM
same,MIC,[9],16 µM
same,MIC,[10],128 µM
same,MIC,[11],> 128 µM
same,MIC,[12],32 µM
same,inhibition (INH),[13],>50%
same,MIC,[14],16 µM
same,Activity,[15],21.2%
same,Activity,[16],Active
CCCCCC(=O)NC(Cc1cn(CCCC[C@H](NC(C)=O)C(=O)NCC(=O)N[C@@H](CC(C)C)C(=O)N[C@@H](CC(C)C)C(=O)N[C@H](CCCCN)C(=O)N[C@@H](CCCNC(=N)N)C(=O)N[C@H](C(=O)N[C@H](CCCCN)C(=O)N[C@H](C(=O)N[C@@H](CC(C)C)C(=O)N[C@@H](CC(C)C)C(N)=O)[C@@H](C)O)[C@@H](C)CC)nn1)C(=O)NCC(=O)N[C@@H](CC(C)C)C(=O)N[C@@H](CC(C)C)C(=O)N[C@H](CCCCN)C(=O)N[C@@H](CCCNC(=N)N)C(=O)N[C@H](C(=O)N[C@H](CCCCN)C(=O)N[C@H](C(=O)N[C@@H](CC(C)C)C(=O)N[C@@H](CC(C)C)C(N)=O)[C@@H](C)O)[C@@H](C)CC (stereo partly drawn),MIC,[17],4 µM
same,inhibition,[1],Active
same,MIC,[18],16 µM
same,inhibition,[4],Active
same,MIC,[19],64 µM
same,Activity,[5],Active
same,Activity,[6],Dose-dependent effect
same,MIC,[20],8 µM
same,MIC,[21],32 µM
same,Activity,[22],Active
same,inhibition (INH),[13],>50%
same,MIC,[23],16 µM
same,"viability at 1 h, 32 µM",[24],> 80%
same,MIC,[25],16 µM
same,Activity,[15],22.4%
same,"hemolysis at 1 h, 256 µM",[26],< 5%
same,Activity,[16],Active
